# According to PubChem BioAssay AID1963856 (Molecular Pharmacology Branch, DTP, NCI, 2024):
# Test system: LG0567-F671-PDC KRAS tumor spheroid viability
# Experiment: Anticancer human tumor LG0567-F671-PDC patient-derived lung adenocarcinoma cell line growth inhibition [KRAS2]
# Conditions: spheroids with HUVEC and MSC; for IC50: curve of first compound; for viability, T/C: stronger effect = lower value
# Outline: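 KRAS-mutant tumor cells were grown as spheroids with HUVEC endothelial cells and human MSCs as stroma. Targeted agents were tested alone and with KRAS pathway inhibitors. Doses started at or near clinical Cmax, or 10 microM, descending half-log.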
# [1] = second compound 0.1 µM, first compound 0.0316 µM
# [2] = second compound 0.1 µM, first compound 0.1 µM
# [3] = second compound 0.1 µM, first compound 0.316 µM
# [4] = second compound 0.1 µM, first compound 1 µM
# [5] = second compound 0.1 µM, first compound 3.16 µM
# [6] = second compound 0.1 µM, first compound 10 µM
# [7] = second compound 0.316 µM, first compound 0.0316 µM
# [8] = second compound 0.316 µM, first compound 0.1 µM
# [9] = second compound 0.316 µM, first compound 0.316 µM
# [10] = second compound 0.316 µM, first compound 1 µM
# [11] = second compound 0.316 µM, first compound 3.16 µM
# [12] = second compound 0.316 µM, first compound 10 µM
# [13] = second compound 1 µM, first compound 0.0316 µM
# [14] = second compound 1 µM, first compound 0.1 µM
# [15] = second compound 1 µM, first compound 0.316 µM
# [16] = second compound 1 µM, first compound 1 µM
# [17] = second compound 1 µM, first compound 3.16 µM
# [18] = second compound 1 µM, first compound 10 µM
# [19] = second compound 3.16 µM, first compound 0.0316 µM
# [20] = second compound 3.16 µM, first compound 0.1 µM
# [21] = second compound 3.16 µM, first compound 0.316 µM
# [22] = second compound 3.16 µM, first compound 1 µM
# [23] = second compound 3.16 µM, first compound 3.16 µM
# [24] = second compound 3.16 µM, first compound 10 µM
# [25] = second compound 10 µM, first compound 0.0316 µM
# [26] = second compound 10 µM, first compound 0.1 µM
# [27] = second compound 10 µM, first compound 0.316 µM
# [28] = second compound 10 µM, first compound 1 µM
# [29] = second compound 10 µM, first compound 3.16 µM
# [30] = second compound 0.1 µM, first compound 0.01 µM
# [31] = second compound 0.316 µM, first compound 0.01 µM
# [32] = second compound 1 µM, first compound 0.01 µM
# [33] = second compound 3.16 µM, first compound 0.01 µM
# [34] = second compound 10 µM, first compound 0.01 µM
# 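Note: drug exposure lasted seven days after spheroids formed for three days.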
# 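Throughout, for viability, T/C: 100% = DMSO vehicle control viability.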
compound,measurement,setting,value
CC(C)NCC(C(=O)N1CCN(c2ncnc3c2C(C)CC3O)CC1)c1ccc(Cl)cc1 (stereo not given) + CC1OCC2(CCN(c3cnc(Sc4ccnc(N)c4Cl)c(N)n3)CC2)C1N,IC50,second compound 0.1 µM,< 31.6 nM
same,IC50,second compound 0.316 µM,< 31.6 nM
same,IC50,second compound 1 µM,< 31.6 nM
same,IC50,second compound 3.16 µM,< 31.6 nM
same,IC50,second compound 10 µM,< 31.6 nM
same,"viability, T/C",[1],48.9%
same,"viability, T/C",[2],38.3%
same,"viability, T/C",[3],29.8%
same,"viability, T/C",[4],31.9%
same,"viability, T/C",[5],33.6%
same,"viability, T/C",[6],36.5%
same,"viability, T/C",[7],37.1%
same,"viability, T/C",[8],30.9%
same,"viability, T/C",[9],21.5%
same,"viability, T/C",[10],20.5%
same,"viability, T/C",[11],18.6%
same,"viability, T/C",[12],16.6%
same,"viability, T/C",[13],26.4%
same,"viability, T/C",[14],22.4%
same,"viability, T/C",[15],14.3%
same,"viability, T/C",[16],11.9%
same,"viability, T/C",[17],10%
same,"viability, T/C",[18],6.25%
same,"viability, T/C",[19],21.2%
same,"viability, T/C",[20],17.3%
same,"viability, T/C",[21],10.9%
same,"viability, T/C",[22],5.23%
same,"viability, T/C",[23],4.49%
same,"viability, T/C",[24],3.72%
same,"viability, T/C",[25],6.83%
same,"viability, T/C",[26],7.98%
same,"viability, T/C",[27],5.46%
same,"viability, T/C",[28],3.11%
same,"viability, T/C",[29],2.15%
same,"viability, T/C","second compound 10 µM, first compound 10 µM",1.82%
Cn1ncnc1[C@H]1c2n[nH]c(=O)c3cc(F)cc(c23)N[C@@H]1c1ccc(F)cc1 + COc1cc2nc(C)nc(NC(C)c3cc(N)cc(C(F)(F)F)c3)c2cc1OC1CCOC1,IC50,second compound 0.1 µM,> 100 nM
same,IC50,second compound 0.316 µM,> 100 nM
same,IC50,second compound 1 µM,> 100 nM
same,IC50,second compound 3.16 µM,> 100 nM
same,IC50,second compound 10 µM,> 100 nM
same,"viability, T/C","second compound 0.1 µM, first compound 0.000316 µM",94.8%
same,"viability, T/C","second compound 0.1 µM, first compound 0.001 µM",78.3%
same,"viability, T/C","second compound 0.1 µM, first compound 0.00316 µM",74.8%
same,"viability, T/C",[30],83.8%
same,"viability, T/C",[1],84.7%
same,"viability, T/C",[2],82.8%
same,"viability, T/C","second compound 0.316 µM, first compound 0.000316 µM",77.6%
same,"viability, T/C","second compound 0.316 µM, first compound 0.001 µM",74.9%
same,"viability, T/C","second compound 0.316 µM, first compound 0.00316 µM",61.1%
same,"viability, T/C",[31],66.3%
same,"viability, T/C",[7],81.4%
same,"viability, T/C",[8],75.9%
same,"viability, T/C","second compound 1 µM, first compound 0.000316 µM",75.6%
same,"viability, T/C","second compound 1 µM, first compound 0.001 µM",63.6%
same,"viability, T/C","second compound 1 µM, first compound 0.00316 µM",58.6%
same,"viability, T/C",[32],49.1%
same,"viability, T/C",[13],53.7%
same,"viability, T/C",[14],53.8%
same,"viability, T/C","second compound 3.16 µM, first compound 0.000316 µM",69.1%
same,"viability, T/C","second compound 3.16 µM, first compound 0.001 µM",70%
same,"viability, T/C","second compound 3.16 µM, first compound 0.00316 µM",67.3%
same,"viability, T/C",[33],56.9%
same,"viability, T/C",[19],53.6%
same,"viability, T/C",[20],51.9%
same,"viability, T/C","second compound 10 µM, first compound 0.000316 µM",61.3%
same,"viability, T/C","second compound 10 µM, first compound 0.001 µM",62.9%
same,"viability, T/C","second compound 10 µM, first compound 0.00316 µM",71.2%
same,"viability, T/C",[34],54.4%
same,"viability, T/C",[25],51.7%
same,"viability, T/C",[26],53.6%
COc1cc(Nc2ncc3c(n2)-c2ccc(Cl)cc2C(c2c(F)cccc2OC)=NC3)ccc1C(=O)O + C=CC(=O)N1CCN(c2nc(OCC3CCCN3C)nc3c2CCN(c2cccc4cccc(C)c24)C3)CC1CC#N,IC50,second compound 0.0316 µM,< 31.6 nM
same,IC50,second compound 0.1 µM,< 31.6 nM
same,IC50,second compound 0.316 µM,< 31.6 nM
same,IC50,second compound 1 µM,< 31.6 nM
same,IC50,second compound 3.16 µM,< 31.6 nM
same,"viability, T/C","second compound 0.0316 µM, first compound 0.0316 µM",32.8%
same,"viability, T/C","second compound 0.0316 µM, first compound 0.1 µM",20.1%
same,"viability, T/C","second compound 0.0316 µM, first compound 0.316 µM",20.5%
same,"viability, T/C","second compound 0.0316 µM, first compound 1 µM",20.2%
same,"viability, T/C","second compound 0.0316 µM, first compound 3.16 µM",18.7%
same,"viability, T/C","second compound 0.0316 µM, first compound 10 µM",16.3%
same,"viability, T/C",[1],25.7%
same,"viability, T/C",[2],22.9%
same,"viability, T/C",[3],17.6%
same,"viability, T/C",[4],19.2%
same,"viability, T/C",[5],21.8%
same,"viability, T/C",[6],15%
same,"viability, T/C",[7],29.2%
same,"viability, T/C",[8],22.6%
same,"viability, T/C",[9],20.3%
same,"viability, T/C",[10],19.7%
same,"viability, T/C",[11],23.3%
same,"viability, T/C",[12],16.9%
same,"viability, T/C",[13],27.8%
same,"viability, T/C",[14],26.4%
same,"viability, T/C",[15],24.6%
same,"viability, T/C",[16],25.4%
same,"viability, T/C",[17],26.7%
same,"viability, T/C",[18],22.9%
same,"viability, T/C",[19],28.7%
same,"viability, T/C",[20],30.4%
same,"viability, T/C",[21],30.3%
same,"viability, T/C",[22],23.7%
same,"viability, T/C",[23],17%
same,"viability, T/C",[24],1.09%
CC1COCCN1c1cc(-c2ccnn2C)c2ccnc(-c3ccn[nH]3)c2n1 (stereo not given) + CNCc1ccccc1-c1csc(C(C)Nc2nc(C)nc3cc(OC)c(OC)cc23)c1,IC50,second compound 0.1 µM,> 3160 nM
same,IC50,second compound 0.316 µM,372 nM
same,IC50,second compound 1 µM,41.4 nM
same,IC50,second compound 3.16 µM,160 nM
same,IC50,second compound 10 µM,< 10 nM
same,"viability, T/C",[30],87.1%
same,"viability, T/C",[1],74.4%
same,"viability, T/C",[2],60.2%
same,"viability, T/C",[3],58.9%
same,"viability, T/C",[4],48.6%
same,"viability, T/C",[5],54%
same,"viability, T/C",[31],85.9%
same,"viability, T/C",[7],77.7%
same,"viability, T/C",[8],60.6%
same,"viability, T/C",[9],50.6%
same,"viability, T/C",[10],46%
same,"viability, T/C",[11],49.2%
same,"viability, T/C",[32],68%
same,"viability, T/C",[13],50.7%
same,"viability, T/C",[14],42.6%
same,"viability, T/C",[15],41.4%
same,"viability, T/C",[16],34.7%
same,"viability, T/C",[17],33.4%
same,"viability, T/C",[33],65.6%
same,"viability, T/C",[19],58.5%
same,"viability, T/C",[20],61.6%
same,"viability, T/C",[21],29.8%
same,"viability, T/C",[22],33.2%
same,"viability, T/C",[23],36.2%
same,"viability, T/C",[34],0.18%
same,"viability, T/C",[25],0.17%
same,"viability, T/C",[26],0.15%
same,"viability, T/C",[27],0.17%
same,"viability, T/C",[28],0.74%
same,"viability, T/C",[29],0.24%
CC(=O)OC12COC1CC(O)C1(C)C(=O)C(O)C3=C(C)C(OC(=O)C(O)C(NC(=O)OC(C)(C)C)c4ccccc4)CC(O)(C(OC(=O)c4ccccc4)C21)C3(C)C (stereo not given) + CNCc1ccccc1-c1csc(C(C)Nc2nc(C)nc3cc(OC)c(OC)cc23)c1,IC50,second compound 0.1 µM,< 10 nM
same,IC50,second compound 0.316 µM,< 10 nM
same,IC50,second compound 1 µM,< 10 nM
same,IC50,second compound 3.16 µM,< 10 nM
same,IC50,second compound 10 µM,< 10 nM
same,"viability, T/C",[30],48.5%
same,"viability, T/C",[1],46.4%
same,"viability, T/C",[2],43.9%
same,"viability, T/C",[3],47.1%
same,"viability, T/C",[4],61.4%
same,"viability, T/C",[5],53.6%
same,"viability, T/C",[31],35.6%
same,"viability, T/C",[7],34.3%
same,"viability, T/C",[8],34.4%
same,"viability, T/C",[9],42.4%
same,"viability, T/C",[10],39.5%
same,"viability, T/C",[11],40%
same,"viability, T/C",[32],44%
same,"viability, T/C",[13],40.9%
same,"viability, T/C",[14],42.2%
same,"viability, T/C",[15],48.3%
same,"viability, T/C",[16],48.1%
same,"viability, T/C",[17],42.1%
same,"viability, T/C",[33],24%
same,"viability, T/C",[19],0.94%
same,"viability, T/C",[20],0.36%
same,"viability, T/C",[21],0.26%
same,"viability, T/C",[22],0.19%
same,"viability, T/C",[23],37.5%
same,"viability, T/C",[34],0.6%
same,"viability, T/C",[25],0.13%
same,"viability, T/C",[26],0.43%
same,"viability, T/C",[27],0.19%
same,"viability, T/C",[28],42.7%
same,"viability, T/C",[29],0.85%
